Entries after “also recorded” stand apart in the source; their conditions may differ.
Assays:
[1] = system: patients with R/R B-cell malignancies; test: phase 1 clinical study: efficacy (response, ALC, SPD); assay type: in vivo, human
Method: (§1) A phase 1 study (dose escalation and safety expansion) to determine safety, tolerability, maximum tolerated dose ([…]), and recommended phase 2 dose (RP2D) of Compound 1 in patients with R/R B-cell malignancies was conducted. (Table 6-1A).
(§2) Part 1 Monotherapy Ramp-Up Schedule and Dose Finding • 1) Cohort 1A: Cohort 1A consists of patients with relapsed/refractory B-cell non-Hodgkin lymphoma (R/R B-cell NHL) excluding mantle cell lymphoma (MCL). These patients are expected to be at low risk of tumor lysis syndrome (low TLS risk), and are treated with a short ramp-up schedule reaching target dose on Day 3. Patients in this cohort receive escalating doses of Compound 1 monotherapy: 40 mg, 80 mg, 160 mg, 320 mg, and 640 mg (unless adjusted by Safety Monitoring Committee [SMC] recommendation). • 2) Cohort 1B is opened, when ≥1 tolerable dose level of Cohort 1A was determined. It consists of patients with low-tumor-burden R/R CLL/SLL. This cohort pursues dose finding, including evaluation of both ramp-up schedule and target dose. Patients increase the ramp-up dose weekly until the target dose for the cohort is reached. The ramp-up steps is 1 mg, 2 mg, 5 mg, 10 mg, 20 mg, 40 mg, 80 mg, 160 mg, 320 mg, and 640 mg (unless adjusted by SMC recommendation). […]. • 3) Cohort 1C: This Cohort consists of patients with high-tumor-burden R/R chronic lymphocytic leukemia/small lymphocytic lymphoma (R/R CLL/SLL). This cohort will not be dosed until the RP2D for Cohort 1B is established. The objective of this cohort is to confirm, in patients with high-tumor-burden CLL/SLL, the safety of the monotherapy ramp-up schedule and RP2D established in patients with low-tumor-burden CLL/SLL. • 4) Cohort 1D: This Cohort consists of patients with R/R MCL. This cohort will not be dosed until the RP2D for Cohort 1B is established. The objective of this cohort is to confirm, in patients with R/R MCL, the safety of the monotherapy ramp-up schedule and RP2D established in patients with low tumor-burden CLL/SLL. • Cohort 1D′: This Cohort consists of patients with R/R MCL. And, the target dosage are 160 and 320 mg. • 5) Cohort 1E: This Cohort consists of patients with R/R waldenstrom macroglobulinemia (R/R WM). This cohort will not be dosed until the RP2D for Cohort 1B is established. The objective of this cohort is to confirm, in patients with R/R WM, the safety of the monotherapy ramp-up schedule and RP2D established in patients with low tumor-burden CLL/SLL.
(§3) The study also includes dose escalation and expansion cohorts for the combination of Compound 1 and Bruton tyrosine kinase (BTK) inhibitor Zanubrutinib in patients with selected B-cell malignancy, such as CLL/SLL and mantle cell lymphoma (MCL). (Table 6-2A). Patients in the combination therapy cohorts receive Zanubrutinib 320 mg daily (160 mg twice a day [BID] or 320 mg once a day [QD]) beginning 8-12 weeks before Compound 1 is introduced. And, the corresponding dose-escalation and expansion are conducted in Part 3 and Part 4):
(§4) Dose finding is pursued in Patients with R/R CLL/SLL or R/R MCL who are Bel-2-inhibitor naive and have not progressed on a BTK inhibitor, including evaluation of ramp-up schedule and target dose of Compound 1 when used in combination with Zanubrutinib. The Compound 1 dose vary but the Zanubrutinib dose is fixed at 320 mg/day (160 mg twice daily or 320 mg once daily). The ramp-up dose increases weekly until the target dose for the cohort is reached. The ramp-up steps for Compound 1 are 1 mg, 2 mg, 5 mg, 10 mg, 20 mg, 40 mg, 80 mg, 160 mg, 320 mg, and 640 mg (unless adjusted by SMC recommendation).
In all Cohorts of the phase 1 study, Compound 1 is orally administrated once daily (QD). […]

[2] = system: patients with R/R B-cell malignancies; test: phase 1 clinical study: safety, tolerability, DLT, MTD; assay type: in vivo
Method: as §1
Dose-escalation (Part 1) occurs in independent cohorts categorized by patient disease type. These cohorts are continued until a recommended Phase 2 dose (RP2D) is identified, which is then used in corresponding expansion cohorts (Part 2).
as §2
All dose cohorts would be reviewed by a safety monitoring committee (SMC) before opening subsequent dose levels or declaring an MTD/RP2D.
as §3
as §4, with “The ramp-up steps for Compound 1 are 1 mg, 2 mg, 5 mg, 10 mg, 20 mg, 40 mg, 80 mg, 160 mg, 320 mg, and 640 mg (unless adjusted by SMC recommendation).” left out

[3] = 36 patients, monotherapy N = 25, combination therapy N = 11
[4] = 58 patients, monotherapy n = 32, combination n = 26

In the case of `CC(C)c1ccccc1[C@@H]1CCCN1C1CC2(CCN(c3ccc(C(=O)NS(=O)(=O)c4ccc(NCC5CCC(C)(O)CC5)c([N+](=O)[O-])c4)c(Oc4cnc5[nH]ccc5c4)c3)CC2)C1` (stereo partly drawn) [Compound 1, 2-((1H-pyrrolo[2,3-b]pyridin-5-yl)oxy)-N-((4-((((1r,4r)-4-hydroxy-4-methylcyclohexyl)methyl)amino)-3-nitrophenyl)sulfonyl)-4-(2-((S)-2-(2-isopropylphenyl)pyrrolidin-1-yl)-7-azaspiro[3.5]nonan-7-yl)benzamide], the “early response in CLL” value ([1]; CLL/SLL monotherapy, 36-patient data, 80-mg dose level, del (17p) CLL) is reported as 1 of 4 patients with CLL reached first response assessment and achieved partial response, the “patients achieving a response” value ([1]; NHL, monotherapy, 36-patient data, about 5 months of treatment duration, including 1 CR) is reported as 2 patients and the “patients achieving partial response with lymphocytosis (PR-L) or better” value ([1]; monotherapy, R/R CLL/SLL, four of 6 patients, at either 80 or 160 mg) is reported as 67%. For the same molecule, the patients responded ([1]; monotherapy, R/R NHL, two of 20 patients, 1 PR at 160 mg and 1 CR at 320 mg) was 10%, the “patients with minor response” value ([1]; monotherapy, R/R WM, one of 2 patients, at 80 mg) was 50% and the “reduction in SPD from baseline” value ([1]; monotherapy, patients with R/R NHL) was “significant reduction in SPD form baseline were seen in most patients; also recorded: significant reduction in SPD from baseline were seen in most patients”. The “reduction in absolute lymphocyte count (ALC)” value ([1]; patients with CLL during ramp-up, monotherapy and combination therapy, seen at dose levels as low as 1 mg) was “significant reduction in absolute lymphocyte count (ALC) was noted among all patients with CLL during ramp-up”, the “blood MRD (minimal residual disease) negativity” value ([1]; patients with CLL, monotherapy or combination with Zanubrutinib) was “negativity was observed in 160 mg cohorts after 6 months treatment but not in 40 mg and 80 mg cohorts” and the “AEs, n (%): AEs leading to discontinuation of Compound 1” value [2, 3] was 1 n (%). The “AEs, n (%): AEs leading to dose reduction of Compound 1” value [2, 3] was 0 n (%), the “AEs, n (%): AEs leading to hold of Compound 1” value [2, 3] was 4 n (%) and the “AEs, n (%): Grade ≥3 AEs” value [2, 3] was 11 n (%). For the same molecule, the “AEs, n (%): Serious AEs” value [2, 3] was 9 n (%), the “AEs, n (%): Total” value [2, 3] was 22 n (%) and the “AEs, n (%): Leading to death” value ([2]; 36 patients, monotherapy N = 25, combination therapy N = 11, neither death related to study drug) was 2 n (%). The “Diarrhea, All Grade, n (%)” value [2, 4] was 8 n (%), the “Diarrhea, Grade ≥3, n (%)” value [2, 4] was 0 n (%) and the “Fatigue, All Grade, n (%)” value [2, 4] was 8 n (%). The “Fatigue, Grade ≥3, n (%)” value [2, 4] was 0 n (%), the “Headache, All Grade, n (%)” value [2, 4] was 5 n (%) and the “Headache, Grade ≥3, n (%)” value [2, 4] was 0 n (%). The “Nausea, All Grade, n (%)” value [2, 4] was 12 n (%), the “Nausea, Grade ≥3, n (%)” value [2, 4] was 0 n (%) and the DLTs ([2]; Cohort 1A NHL, monotherapy, 40-mg (n=3), 80-mg (n=4) and 320-mg (n=3) dose cohorts) was “no disease-limiting toxicities (DLTs)”. For the same molecule, the DLTs ([2]; Cohort 1A NHL, monotherapy, 160-mg (n=3+1) dose cohort) was “one DLT of grade 3 febrile neutropenia”, the MTD ([2]; Cohort 1A NHL, monotherapy, all dose cohorts completed) was “no MTD reached through 640 mg” and the DLTs ([2]; Cohort 1B R/R CLL, monotherapy, 80 mg target dose level (n=4)) was “one DLT of grade 4 neutropenia”. The “patients with grade ≥3 neutropenia” value ([2]; monotherapy) was 5 patients, the patients with neutropenia ([2]; monotherapy) was 6 patients and the “Abdominal Pain, All Grade, n (%)” value ([2]; monotherapy n = 32) was 4 n (%). For the same molecule, the “Abdominal Pain, Grade ≥3, n (%)” value ([2]; monotherapy n = 32) was 2 n (%), the “Constipation, All Grade, n (%)” value ([2]; monotherapy n = 32) was 5 n (%) and the “Constipation, Grade ≥3, n (%)” value ([2]; monotherapy n = 32) was 0 n (%). For the same molecule, the “Dizziness, All Grade, n (%)” value ([2]; monotherapy n = 32) was 5 n (%), the “Dizziness, Grade ≥3, n (%)” value ([2]; monotherapy n = 32) was 0 n (%) and the “Fall, All Grade, n (%)” value ([2]; monotherapy n = 32) was 5 n (%). The “Fall, Grade ≥3, n (%)” value ([2]; monotherapy n = 32) was 2 n (%), the “Neutropenia, All Grade, n (%)” value ([2]; monotherapy n = 32) was 8 n (%) and the “Neutropenia, Grade ≥3, n (%)” value ([2]; monotherapy n = 32) was 6 n (%). For the same molecule, the “Oedema peripheral, All Grade, n (%)” value ([2]; monotherapy n = 32) was 4 n (%), the “Oedema peripheral, Grade ≥3, n (%)” value ([2]; monotherapy n = 32) was 0 n (%) and the “Pyrexia, All Grade, n (%)” value ([2]; monotherapy n = 32) was 6 n (%). For the same molecule, the “Pyrexia, Grade ≥3, n (%)” value ([2]; monotherapy n = 32) was 1 n (%), the “Thrombocytopenia, All Grade, n (%)” value ([2]; monotherapy n = 32) was 4 n (%) and the “Thrombocytopenia, Grade ≥3, n (%)” value ([2]; monotherapy n = 32) was 2 n (%). For the same molecule, the “Urinary tract infection, All Grade, n (%)” value ([2]; monotherapy n = 32) was 4 n (%), the “Urinary tract infection, Grade ≥3, n (%)” value ([2]; monotherapy n = 32) was 0 n (%) and the “laboratory TLS” value ([2]; monotherapy, one high-risk patient with CLL, resolved with no intervention) was under 2%. It also gave a tolerable dose ([2]; result of 58 patients, monotherapy or in combination with Zanubrutinib, MTD not yet reached) of at most 640 mg.

Source: patent publication US20240122932A1, “Methods of Treating B-Cell Malignancy Using Bcl-2 Inhibitor” (BeiGene Switzerland GmbH, priority 2021, published 2024)
